From patent publication US11633392B2 (priority 2016, dated 2023)
pEC50: −log10 of the molar value. Marks after values point to notes of the source that are not given here.

What was measured:
human opioid δ receptor = biological target: T1, human opioid δ receptor (Homo sapiens, UniProt P41143); assay: Opioid receptor function test (Lance Ultra cAMP Kit), δ receptor; type: cell-based; settings: for pEC50: CHO cells expressing human δ receptor, cAMP, in the presence of forskolin; for Emax: ratio to maximum reaction of control drug SNC80 taken as 100%
T1 construct: host or cells: CHO cells
Protocol: (§1) Opioid Receptor Function Test
(§2) The functional activities of the compounds provided by the present invention on the μ, δ, and κ opioid receptors were investigated.
(§3) The test was performed by using Lance Ultra cAMP Kit (PerkinElmer) according to a method predetermined for the kit. In the evaluation of the agonistic activity, CHO cells expressing each of the human opioid receptors (δ, μ, and κ, accession numbers and catalog numbers are mentioned below) and 10 μM of each test compound were reacted for 30 minutes in an assay buffer (1× HBSS, […], pH 7.4, […] (isobutylmethylxanthine), 7.5% BSA) in the presence of forskolin. Subsequently, the cAMP detection reagent included in the kit was added, and 1 hour afterward, time-resolved fluorescence measurement was performed by using the EnVision plate reader (PerkinElmer). The test compounds and the control drugs (δ: SNC80, μ: DAMGO, κ: U-69593) were evaluated in a concentration range of 10^−12 to 10^−5 M, a dose-response curve of each test compound was obtained from the fluorescence values at 665 nm, and EC50 value and the Emax value were calculated. The Emax value was calculated as a ratio of the maximum reaction of the test compound to the maximum reaction of each control drug, which is taken as 100%.
(§4) • δ: Catalog No. CT4607, Accession No. NM_000911.2 • μ: Catalog No. CT4605, Accession No. NM_000914 • κ: Catalog No. CT4606, Accession No. NM_000912 (ChanTest Corporation)

human opioid μ receptor = biological target: T2, human opioid μ receptor (Homo sapiens, UniProt P35372); assay: Opioid receptor function test (Lance Ultra cAMP Kit), μ receptor; type: cell-based; settings: for pEC50: CHO cells expressing human μ receptor, cAMP, in the presence of forskolin, read-out: μ receptor EC50 value; for Emax: ratio to maximum reaction of control drug DAMGO taken as 100%
T2 construct: host or cells: CHO cells
Protocol: as §1, §2, §3, §4

human opioid κ receptor = biological target: T3, human opioid κ receptor (Homo sapiens, UniProt P41145); assay: Opioid receptor function test (Lance Ultra cAMP Kit), κ receptor; type: cell-based; settings: for pEC50: CHO cells expressing human κ receptor, cAMP, in the presence of forskolin; for Emax: ratio to maximum reaction of control drug U-69593 taken as 100%; for κ receptor reaction rate at the maximum concentration (reference value, marked *): maximum reaction not reached, maximum concentration 10 μM, U-69593 = 100%
T3 construct: host or cells: CHO cells
Protocol: as §1, §2, §3, §4

Metabolic stability test = type: in vitro ADME; settings: liver microsomes; human hepatic microsomes, 0 to 60 minutes; read-out: metabolic clearance CLint
Protocol: Human hepatic microsomes and a test substance were reacted for a certain period of time (0 to 60 minutes). The test substance, which was not metabolized in the reaction sample, was measured, and remaining ratio was calculated. The test substance-remaining ratio at the time when the reaction time is 0 hour is taken as 100%. The remaining ratio after incubation was plotted against time as a log-linear plot to obtain a regression line (y=100 e^−kt, k=inclination of straight line: clearance rate constant), and metabolic clearance CLint (mL/min/kg) was calculated by using the following equation. CLint*=k(−min)×52.5(mg MS protein/g liver)×26(g liver/kg)/MS protein (mg MS protein/mL) • *: Davies, B. and Morris T., Physiological parameters in laboratory animals and humans, Pharm. Res., 10(7)1093-1095, 1993 (Test Results)

C57BL/6N male mice = assay: Mouse elevated plus maze test; type: in vivo; settings: subcutaneous
Protocol: Mouse Elevated Plus Maze Test
For the test, 5 to 6 weeks old C57BL/6N male mice were used. On a plus maze apparatus consisting of a wall-less running route (open arm, width 6 cm, length 30 cm) and a running route with a wall (closed arm, width 6 cm, length 30 cm, height of wall 15 cm), and having a height of 40 cm, a mouse was put so as to be directed to the running route with a wall, and allowed to spontaneously enter into the plus maze. Each test substance was dissolved in saline or 0.005 N HCl in saline, and subcutaneously administered on the back 30 minutes before the start of the test. At the time of the start of the test, video recording with a video camera was started, the time at which the mouse entered into the plus maze is considered to be the start of the test, and exploratory behavior was recorded for 5 minutes. On the basis of the video image, staying times in the running routes were determined, and wall-less running route staying time ratio (%) was calculated.

Wistar male rats = assay: Rat elevated plus maze test; type: in vivo; settings: oral, 3 mg/kg, 2 hours before test (FIG. 6)
Protocol: Rat Elevated Plus Maze Test
Anxiolytic effects of the compounds provided by the present invention were investigated by the rat elevated plus maze test.
For the test, 7 to 9 weeks old Wistar male rats were used. […] Each test substance was dissolved in a 4.5% aqueous solution of cyclodextrin, and orally administered 2 hours before the start of the test. The test data were automatically analyzed by using video image action analysis software (Smart3.0, PanLab S.L., PanLab), and wall-less running route staying time ratio (%) was calculated.

hERG potassium channel = biological target: T4, hERG potassium channel (Homo sapiens, UniProt Q12809); assay: hERG potassium channel inhibition test (automatic patch clamp); type: cell-based; settings: pH 7.4, hERG-expressing CHO cells, tail current, read-out: hERG channel inhibitory action
T4 construct: host or cells: CHO cells
Protocol: hERG (Human Ether-A-Go-Go-Related Gene) Potassium Channel Inhibition Test
The test was performed with Port-a-Patch automatic patch clump apparatus (Nanion Technologies) using hERG channel-stably expressing CHO cells (purchased from Channelopathy Foundation). The membrane potential of the cells was maintained at −80 mV, then there were applied a depolarization pulse at +20 mV for 1.5 seconds, and a following test pulse at −50 mV for 1.5 seconds at a frequency of 1 time per 10 seconds, and the hERG current was confirmed as a tail current induced by the test pulse. The test compound was dissolved in an extracellular fluid (137 mM NaCl, 4 mM KCl, 1.8 mM CaCl2, 1 mM MgCl2, 10 mM D(+)-glucose, 10 mM HEPES, pH 7.4), and the solution was refluxed at room temperature for 5 minutes. The inhibition ratio was obtained from the ratio of the tail current value observed after the compound was applied based on the tail current value observed before the compound was applied, which was taken as 100%.

[1] = system: olfactory bulbectomized (OBX) rat; assay: Hyperemotional reaction inhibition test using olfactory bulbectomized (OBX) rat; type: in vivo; settings: 10 mg/kg s.c. once a day, on the day 14 of the administration period
From the text: Hyperemotional Reaction Inhibition Test Using Olfactory Bulbectomized (OBX) Rat
According to the method of Saitoh et al. (Saitoh A, Yamada M, Yamada M, Takahashi K, Yamaguchi K, Murasawa H, Nakatani A, Tatsumi Y, Hirose N, and Kamei J: Antidepressant-like effects of the delta-opioid receptor agonist SNC80 ((+)-4-[(alphaR)-alpha-[(2S,5R)-2,5-dimethyl-4-(2-propenyl)-1-piperazinyl]-(3-methoxyphenyl)methyl]-N,N-diethylbenzamide) in an olfactory bulbectomized rat model, Brain Res., 2008, 1208:160-169), OBX rats were prepared by extracting the rat olfactory bulbs, and then breeding the rats in an isolated circumstance. Hyperemotional reaction was evaluated on the day 14 after the surgical operation and before the division into groups, and 2 hours after the administration on the days 1, 4, 7, 10, and 14 of the administration period according to the hyperemotional reaction evaluation criteria prepared by Gomita et al. (Gomita et al., Behavioral pharmacological and electroencephalographical studies of 7-chloro-1-methyl-5-phenyl-1H-1,5-benzodiazepine-2,4-(3H,5H:)-dione (Clobazam), Folia Pharmacologica Japonica, 82, 267 (1983)). The drug was subcutaneously administered once a day continuously over 14 days. As a positive control drug, fluoxetine, which is a selective serotonin reuptake inhibitor (SSRI), was used. As the solvent, a 1% cyclodextrin (CD) was used.

T2 sequence (P35372 whole entry): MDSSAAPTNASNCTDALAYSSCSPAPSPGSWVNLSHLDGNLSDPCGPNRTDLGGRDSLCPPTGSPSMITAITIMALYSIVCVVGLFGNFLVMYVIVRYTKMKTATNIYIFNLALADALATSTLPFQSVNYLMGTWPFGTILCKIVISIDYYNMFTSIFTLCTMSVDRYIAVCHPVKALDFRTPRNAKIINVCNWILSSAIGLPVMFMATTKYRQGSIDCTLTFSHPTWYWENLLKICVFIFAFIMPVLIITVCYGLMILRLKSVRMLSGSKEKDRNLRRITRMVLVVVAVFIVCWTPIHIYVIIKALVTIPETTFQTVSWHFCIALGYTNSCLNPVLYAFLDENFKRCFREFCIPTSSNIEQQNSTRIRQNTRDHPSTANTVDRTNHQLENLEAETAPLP
T4 sequence (Q12809 whole entry): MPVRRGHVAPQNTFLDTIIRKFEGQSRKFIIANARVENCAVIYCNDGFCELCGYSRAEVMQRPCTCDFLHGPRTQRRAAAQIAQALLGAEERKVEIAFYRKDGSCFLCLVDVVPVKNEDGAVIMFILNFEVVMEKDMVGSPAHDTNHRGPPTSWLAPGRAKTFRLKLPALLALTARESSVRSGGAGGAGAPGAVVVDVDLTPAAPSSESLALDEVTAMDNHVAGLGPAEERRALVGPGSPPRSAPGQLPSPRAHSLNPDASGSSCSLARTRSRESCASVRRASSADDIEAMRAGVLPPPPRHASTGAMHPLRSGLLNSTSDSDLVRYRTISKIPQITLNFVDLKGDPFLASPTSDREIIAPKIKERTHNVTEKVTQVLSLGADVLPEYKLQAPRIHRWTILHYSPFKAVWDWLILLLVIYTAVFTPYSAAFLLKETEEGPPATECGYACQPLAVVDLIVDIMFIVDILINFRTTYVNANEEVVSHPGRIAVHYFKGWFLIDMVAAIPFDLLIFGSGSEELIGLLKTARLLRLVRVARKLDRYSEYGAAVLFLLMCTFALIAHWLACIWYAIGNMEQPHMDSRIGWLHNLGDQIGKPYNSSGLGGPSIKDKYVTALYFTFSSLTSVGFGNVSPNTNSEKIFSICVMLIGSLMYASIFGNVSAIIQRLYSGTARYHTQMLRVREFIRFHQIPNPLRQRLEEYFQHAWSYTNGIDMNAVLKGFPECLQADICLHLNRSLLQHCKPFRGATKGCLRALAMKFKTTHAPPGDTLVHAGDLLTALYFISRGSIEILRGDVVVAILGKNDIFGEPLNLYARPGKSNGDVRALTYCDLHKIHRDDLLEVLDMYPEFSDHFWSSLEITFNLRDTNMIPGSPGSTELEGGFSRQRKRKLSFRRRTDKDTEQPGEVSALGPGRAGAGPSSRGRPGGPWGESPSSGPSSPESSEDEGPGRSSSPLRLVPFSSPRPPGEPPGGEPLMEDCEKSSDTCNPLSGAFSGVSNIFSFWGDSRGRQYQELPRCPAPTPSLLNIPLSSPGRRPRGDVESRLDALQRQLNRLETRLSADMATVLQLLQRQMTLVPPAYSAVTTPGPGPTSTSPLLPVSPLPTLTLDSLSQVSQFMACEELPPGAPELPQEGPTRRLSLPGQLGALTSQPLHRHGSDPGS
T3 sequence (P41145 whole entry): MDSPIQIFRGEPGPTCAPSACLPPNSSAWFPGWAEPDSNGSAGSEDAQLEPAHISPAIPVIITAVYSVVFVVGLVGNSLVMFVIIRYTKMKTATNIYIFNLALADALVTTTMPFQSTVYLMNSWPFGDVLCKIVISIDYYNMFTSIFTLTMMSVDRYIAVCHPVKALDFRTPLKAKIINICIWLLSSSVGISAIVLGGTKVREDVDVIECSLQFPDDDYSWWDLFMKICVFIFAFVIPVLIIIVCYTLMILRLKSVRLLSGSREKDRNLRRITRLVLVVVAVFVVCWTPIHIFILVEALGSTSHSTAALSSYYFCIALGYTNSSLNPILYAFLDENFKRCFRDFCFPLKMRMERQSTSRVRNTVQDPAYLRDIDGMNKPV
T1 sequence (P41143 whole entry): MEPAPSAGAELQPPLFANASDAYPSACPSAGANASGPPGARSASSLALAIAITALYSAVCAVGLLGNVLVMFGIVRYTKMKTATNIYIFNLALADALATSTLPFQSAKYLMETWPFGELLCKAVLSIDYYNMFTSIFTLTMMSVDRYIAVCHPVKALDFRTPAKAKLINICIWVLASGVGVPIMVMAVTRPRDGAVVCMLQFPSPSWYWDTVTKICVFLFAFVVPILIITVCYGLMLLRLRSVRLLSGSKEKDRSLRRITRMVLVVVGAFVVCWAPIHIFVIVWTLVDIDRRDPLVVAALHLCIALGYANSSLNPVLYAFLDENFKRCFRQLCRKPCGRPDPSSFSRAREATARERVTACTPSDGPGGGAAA

Structure (SMILES) | pEC50 (human opioid δ receptor) | Emax (human opioid δ receptor) | pEC50 (human opioid μ receptor) | Emax (human opioid μ receptor) | pEC50 (human opioid κ receptor) | Emax (human opioid κ receptor) | CLint scaled (Metabolic stability test) | wall-less running route staying time ratio (C57BL/6N male mice; dose not stated (FIGS. 3 to 5)) | wall-less running route staying time ratio (Wistar male rats) | inhibition at 5 min, 10 µM (hERG potassium channel) | hyperemotional reactions of the OBX rats compared with the solvent administration group [1] | μ receptor reaction rate at the maximum concentration (reference value, marked *) (human opioid μ receptor; maximum reaction not reached, maximum concentration 10 μM, DAMGO = 100%) | wall-less running route staying time ratio (C57BL/6N male mice; 3 mg/kg, 30 minutes before test (FIG. 1)) | κ receptor reaction rate at the maximum concentration (reference value, marked *) (human opioid κ receptor)
O=C(c1ccc(=O)[nH]n1)N1C[C@H]2C[C@@]34CC[C@@H]1[C@@H]2[C@@]31CCN(CC2CC2)[C@@H]4Cc2ccc(O)cc21 [Example 16, 6-((1S,3aR,5aS,6R,11bR,11cS)-14-(cyclopropylmethyl)-10-hydroxy-2,3,3a,4,5,6,7,11c-octahydro-1H-6,11b-(epiminoethano)-1,5a-methanonaphtho[1,2-e]indole-3-carbonyl)pyridazin-3(2H)-one] | > 8.52 | 92% | < 9.00 | 19% | > 9.00 | 29% | 18 mL/min/kg |  |  |  |  |  |  | 
O=C(c1ccc[nH]c1=O)N1C[C@H]2C[C@@]34CC[C@@H]1[C@@H]2[C@@]31CCN(CC2CC2)[C@@H]4Cc2ccc(O)cc21 [Example 3, 3-((1S,3aR,5aS,6R,11bR,11cS)-14-(cyclopropylmethyl)-10-hydroxy-2,3,3a,4,5,6,7,11c-octahydro-1H-6,11b-(epiminoethano)-1,5a-methanonaphtho[1,2-e]indole-3-carbonyl)pyridin-2(1H)-one] | > 8.52 | 98% | < 9.00 | 20% | > 9.00 | 15% |  | tendency of increasing | significantly increased | < 50% |  |  |  | 
CNCCC(Oc1ccc(C(F)(F)F)cc1)c1ccccc1 (stereo not shown) [fluoxetine, reference compound] |  |  |  |  |  |  |  |  |  |  | significantly reduced |  |  | 
O=C(c1cccc[n+]1[O-])N1C[C@H]2C[C@@]34CC[C@@H]1[C@@H]2[C@@]31CCN(CC2CC2)[C@@H]4Cc2ccc(O)cc21 [Example 1, 2-((1S,3aR,5aS,6R,11bR,11cS)-14-(cyclopropylmethyl)-10-hydroxy-2,3,3a,4,5,6,7,11c-octahydro-1H-6,11b-(epiminoethano)-1,5a-methanonaphtho[1,2-e]indole-3-carbonyl)pyridine 1-oxide] | > 8.52 | 88% |  |  | < 9.00 | 12% | 19 mL/min/kg |  |  | < 50% |  | 8.3* % | significantly increased | 
O=C(c1cc(=O)cco1)N1C[C@H]2C[C@@]34CC[C@@H]1[C@@H]2[C@@]31CCN(CC2CC2)[C@@H]4Cc2ccc(O)cc21 [Example 19, 2-((1S,3aR,5aS,6R,11bR,11cS)-14-(cyclopropylmethyl)-10-hydroxy-2,3,3a,4,5,6,7,11c-octahydro-1H-6,11b-(epiminoethano)-1,5a-methanonaphtho[1,2-e]indole-3-carbonyl)-4H-pyran-4-one] | > 8.52 | 91% | < 9.00 | 19% |  |  |  |  |  |  |  |  |  | 0.6* %
Cn1cc(C(=O)N2C[C@H]3C[C@@]45CC[C@@H]2[C@@H]3[C@@]42CCN(CC3CC3)[C@@H]5Cc3ccc(O)cc32)ccc1=O [Example 9, 5-((1S,3aR,5aS,6R,11bR,11cS)-14-(cyclopropylmethyl)-10-hydroxy-2,3,3a,4,5,6,7,11c-octahydro-1H-6,11b-(epiminoethano)-1,5a-methanonaphtho[1,2-e]indole-3-carbonyl)-1-methylpyridin-2(1H)-one] | > 8.52 | 74% | > 9.00 | 15% | > 9.00 | 14% |  | tendency of increasing |  | < 50% |  |  |  | 
CCn1cc(C(=O)N2C[C@H]3C[C@@]45CC[C@@H]2[C@@H]3[C@@]42CCN(CC3CC3)[C@@H]5Cc3ccc(O)cc32)ccc1=O [Example 28, 5-((1S,3aR,5aS,6R,11bR,11cS)-14-(cyclopropylmethyl)-10-hydroxy-2,3,3a,4,5,6,7,11c-octahydro-1H-6,11b-(epiminoethano)-1,5a-methanonaphtho[1,2-e]indole-3-carbonyl)-1-ethylpyridin-2(1H)-one] | > 8.52 | 92% | < 9.00 | 16% | > 9.00 | 18% |  |  |  |  |  |  |  | 
O=C(c1cc[nH]c(=O)c1)N1C[C@H]2C[C@@]34CC[C@@H]1[C@@H]2[C@@]31CCN(CC2CC2)[C@@H]4Cc2ccc(O)cc21 [Example 11, 4-((1S,3aR,5aS,6R,11bR,11cS)-14-(cyclopropylmethyl)-10-hydroxy-2,3,3a,4,5,6,7,11c-octahydro-1H-6,11b-(epiminoethano)-1,5a-methanonaphtho[1,2-e]indole-3-carbonyl)pyridin-2(1H)-one] | > 8.52 | 76% | < 9.00 | 11% |  |  |  |  |  |  |  |  |  | −2.5* %
